# Source: paper PMC11532980, “Solvation free energy in governing equations for DNA hybridization, protein–ligand binding, and protein folding” (FEBS Open Bio, 2024)
# Molecular target: T1, ribonuclease A (RNase A) (Bos taurus, UniProt P61823)
# T1 construct: gene RNASE1; native enzyme from bovine pancreas, commercial; mature secreted protein (signal peptide removed), no tag
# T1 sequence (P61823 27-150): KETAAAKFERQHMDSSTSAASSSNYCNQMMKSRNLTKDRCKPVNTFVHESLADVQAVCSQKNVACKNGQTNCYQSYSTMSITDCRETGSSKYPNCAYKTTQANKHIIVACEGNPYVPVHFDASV
# Assay: isothermal titration calorimetry
# Format: binding
# Conditions: 25 mM Bis-Tris, 25 mM KCl, pH 6.0, 25 °C; K per RNase A concentration (five concentrations, up to 0.6 mM); ligand from disodium salt; y-intercept of −RTlnK versus complex concentration (extrapolated t)
structure (smiles),measurement,value
O=c1ccn([C@@H]2O[C@H](CO)[C@@H](OP(=O)(O)O)[C@H]2O)c(=O)[nH]1 [3′‐UMP],ΔG°,-6.46 ± 0.03 kcal/mol
